Assays:
[1] = target: T1, Tyrosinase (Agaricus bisporus) (UniProt O42713); test: Inhibition of mushroom tyrosinase at 100 uM preincubated for 10 mins before addition of 1.7 mM L-tyrosine measured after 20 mins by spectrophotometric method
T1 sequence (whole entry): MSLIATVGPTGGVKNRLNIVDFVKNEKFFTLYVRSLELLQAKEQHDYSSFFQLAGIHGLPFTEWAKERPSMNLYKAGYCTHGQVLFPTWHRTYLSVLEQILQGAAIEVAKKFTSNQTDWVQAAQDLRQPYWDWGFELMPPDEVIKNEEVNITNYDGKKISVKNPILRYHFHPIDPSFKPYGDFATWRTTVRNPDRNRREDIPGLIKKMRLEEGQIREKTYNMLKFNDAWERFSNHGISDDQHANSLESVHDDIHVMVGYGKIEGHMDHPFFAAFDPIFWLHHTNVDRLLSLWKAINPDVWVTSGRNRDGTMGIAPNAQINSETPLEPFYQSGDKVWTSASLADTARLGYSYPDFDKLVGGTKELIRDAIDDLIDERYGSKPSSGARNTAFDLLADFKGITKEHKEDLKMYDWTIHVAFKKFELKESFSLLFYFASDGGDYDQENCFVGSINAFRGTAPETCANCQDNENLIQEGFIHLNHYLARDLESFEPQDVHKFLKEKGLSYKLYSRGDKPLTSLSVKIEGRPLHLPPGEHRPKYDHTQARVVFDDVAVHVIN

[2] = target: T1, Tyrosinase (Agaricus bisporus); test: (§1) Inhibition of mushroom tyrosinase preincubated for 10 mins before addition of 1.7 mM L-tyrosine measured after 20 mins by spectrophotometric method
[3] = target: T2, Tyrosinase (Agaricus bisporus, UniProt O42713); test: as §1
T2 sequence (O42713 whole entry): T1 sequence (whole entry)

| Structure (SMILES) | inhibition [1] [%] | IC5 [2] [µM] | IC50 [3] [µM] |
| --- | --- | --- | --- |
| CC(C)=CCc1cccc([C@@H]2CC(=O)c3c(O)cc4c(c3O2)C=CC(C)(C)O4)c1O | 6.4 | – | – |
| O=C1C[C@@H](c2ccc(O)cc2)Oc2cc(O)cc(O)c21 | 2.8 | – | – |
| C=CC(C)(C)c1ccc(O)c([C@@H]2CC(=O)c3c(O)cc(O)c(CC=C(C)C)c3O2)c1 | 82.1 | 27.5 | – |
| CC(C)=CCc1cccc([C@@H]2CC(=O)c3c(O)cc(O)c(CC=C(C)C)c3O2)c1O | 87.8 | – | 68.5 |
| COc1ccc([C@@H]2CC(=O)c3c(O)cc(O)cc3O2)cc1O | 0 | – | – |
| CC1(C)C=Cc2c(cc(O)c3c2O[C@H](c2ccccc2)CC3=O)O1 | 16.2 | – | – |

— ChEMBL document CHEMBL1687862, “Prenylated flavanones with anti-tyrosinase activity from Dalea boliviana” (J Nat Prod, 2011)
